The nature of one data set: Solution Stability Assay. Type of data set: physicochemical. The protocol:
Acetonitrile Stock Solution: Acetonitrile Stock Solution of the prodrug was prepared by dissolving 1.5-2.0 mg of weighted compound in 5.0 mL of acetonitrile in a 5 mL volumetric flask.
pH 6.5 Buffer Working Solution: A pH 6.5 Buffer Working Solution of drug was prepared by adding 1.5 mL of the Acetonitrile Stock Solution to 3.5 mL of stability buffer (50 mM potassium phosphate, pH 6.5) in a 10 mL vial, and mixing. Using a 3 mL syringe, ˜3 mL of solution was withdrawn and filtered using the Gelman 0.45 μm syringe filter into a clean 1.5 mL LC vial. This filtered solution will was used to evaluate the prodrug degradation throughout the course of the study. Target concentration: 90-120 μg/mL (70% Aqueous: 30% Acetonitrile)
pH 4.0 Acidic Working Solution: A pH 4.0 Working Solution of drug was prepared by adding 1.5 mL of the Acetonitrile Stock Solution to 3.5 mL of stability buffer (50 mM sodium acetate, pH 4.0) in a 10 mL vial and mixing. Using a 3 mL syringe, ˜3 mL of solution was withdrawn and filtered using the Gelman 0.45 μm syringe filter into a clean 1.5 mL LC vial. This filtered solution was used to evaluate the prodrug degradation throughout the course of the study. Target concentration: 90-120 μg/mL (70% Aqueous: 30% Acetonitrile)
Experimental Methods: Following the sample preparation procedure described above a single sample (n=1) was prepared for each pH condition. The samples were then placed in an HPLC autosampler maintained at 37° C. and samples were analyzed over a 24 h period. Prodrug remaining (%) was reported relative to the initial peak area (t=0 h). In cases where a conversion to parent half-life could be calculated, a t1/2 was generated. Confirmation of the conversion to parent from the prodrug was obtained by LCMS and HPLC analysis of the final timepoint samples.
Typical LC parameters are shown below: • HPLC System: HP1100 Series, Hewlett Packard., Heated autosampler • Analytical column: Synergi 4 u Hydro C18, 4.6 mm×5.0 cm, PHENOMENEX® • Column temperature: 40° C. • Autosampler temp: 37° C. • Flow rate: 1.0 mL/min • Injection Volume: 10 μL • Mobile Phase: A: Acetonitrile • B: 0.1% Phosphoric acid in water • Run Time: 14.0 minutes Typical LCMS parameters are shown below: • LC-MS System: Surveyor HPLC system, ThermoFinnigan LCQ Deca XP Max (Ion trap) • Analytical column: Synergi 4 u Hydro C18, 4.6 mm×5.0 cm, PHENOMENEX® • Column temperature: 40° C. • Autosampler temp: 22° C. • Flow rate: 1.0 mL/min • Injection Volume: 5 μL • Mobile Phase: A: 95% Acetonitrile/5% 20 mM Ammonium Acetate • B: 5% Acetonitrile/95% 20 mM Ammonium Acetate LCQ Parameters: • Sheath Flow Rate: 81.64 • Aux/Sweep Flow Rate: 19.01 • Current (uA): 10.89 • Voltage (kV): 5.00 • Capillary (C): 348.10 • Capillary Voltage (V): 30.44

Data set [1] is described as follows: Thermodynamic Equilibrium Aqueous Solubility Assay. Conditions: thermodynamic from solid. It is filed as physicochemical. The protocol: Standards Preparation: The calibration standard was prepared by accurately weighing 0.5-0.7 mg of sample in 5 ml of methanol. If the material was not fully soluble in methanol, other solvents such as DMSO or mixed solvents were used.
Test Sample Preparation: An excess amount of powder prodrug was equilibrated with 1 mL of buffer (50 mM potassium phosphate, pH 6.5 and 50 mM sodium acetate, pH 4.0) in a 2 mL glass vial. The solution was sonicated and vortexed for ˜30 seconds. The vials were shaken at 300 rpm at room temperature for 24 hrs. The exact incubation time for a specific prodrug was based on the prior aqueous stability data. If the compound was stable in the buffer up to 24 hrs, then the solubility was measured after 24 hrs, otherwise kinetic solubility data was reported. The final saturated solution was then transferred to a 1.5 mL Eppendorf tube and centrifuged for ˜2 min. at 10000 rpms. The supernatant from the saturated solution was transferred to a glass HPLC vial and the solubility was analyzed by HPLC using a four point calibration curve.

Where [2] appears, read: potassium phosphate buffer with 30% acetonitrile, pH 6.5, read-out: Stability (t1/2, h) pH 6.5 (converted).
The mark [3] stands for this setting: sodium acetate buffer with 30% acetonitrile, pH 4, read-out: Stability (t1/2, h) pH 4.0 (converted).
The mark [4] stands for this setting: potassium phosphate buffer, pH 6.5, aqueous buffer, read-out: Solubility (mg/mL) pH 6.5.
Setting [5] is: sodium acetate buffer, pH 4, aqueous buffer, read-out: Solubility (mg/mL) pH 4.0.

In brackets after ≈: the same amount, converted by molar mass. Where two headings read alike, the source gives them in different places.

Turning to `NC(=O)[C@@H](CCC(F)(F)F)[C@@H](CCC(F)(F)F)C(=O)N[C@H]1N=C(c2ccccc2)c2ccccc2N(COC(=O)Cc2ccc(OP(=O)(O)O)cc2)C1=O` [Example 1, ((3S)-3-(((2R,3S)-3-Carbamoyl-6,6,6-trifluoro-2-(3,3,3-trifluoropropyl)hexanoyl)amino)-2-oxo-5-phenyl-2,3-dihydro-1H-1,4-benzodiazepin-1-yl)methyl (4-(phosphonooxy)phenyl)acetate], the half-life in the data set “Solution Stability Assay” (setting [2]) and in the data set “Solution Stability Assay” (setting [3]) was greater than 500 h in each case. The solubility at 24 h in data set [1] (setting [4]) was greater than 1.22 mg/mL; in data set [1] (setting [5]), 0.01 mg/mL (≈ 12.7 µM).

In the case of `NC(=O)[C@@H](CCC(F)(F)F)[C@@H](CCC(F)(F)F)C(=O)N[C@H]1N=C(c2ccccc2)c2ccccc2N(COC(=O)c2ccc(COP(=O)(O)O)cc2)C1=O` [Example 2, ((3S)-3-(((2R,3S)-3-Carbamoyl-6,6,6-trifluoro-2-(3,3,3-trifluoropropyl)hexanoyl)amino)-2-oxo-5-phenyl-2,3-dihydro-1H-1,4-benzodiazepin-1-yl)methyl 4-((phosphonooxy)methyl)benzoate], the half-life in “Solution Stability Assay” (setting [2]) and in the data set “Solution Stability Assay” (setting [3]) was greater than 500 h throughout. The figures for the solubility at 24 h in data set [1] (setting [4]) and in data set [1] (setting [5]) were 0.42 mg/mL (≈ 534 µM) and 0.99 mg/mL (≈ 1260 µM), respectively.

Turning to `Cc1cc(C)c(C(C)(C)CC(=O)OCN2C(=O)[C@@H](NC(=O)[C@H](CCC(F)(F)F)[C@H](CCC(F)(F)F)C(N)=O)N=C(c3ccccc3)c3ccccc32)c(OP(=O)(O)O)c1` [Example 3, (3-(((2R,3S)-3-Carbamoyl-6,6,6-trifluoro-2-(3,3,3-trifluoropropyl)hexanoyl)amino)-2-oxo-5-phenyl-2,3-dihydro-1H-1,4-benzodiazepin-1-yl)methyl 3-(2,4-dimethyl-6-(phosphonooxy)phenyl)-3-methylbutanoate], the half-life in the data set “Solution Stability Assay” (setting [2]) and in the data set “Solution Stability Assay” (setting [3]) was greater than 500 h throughout. Besides, the solubility at 24 h in data set [1] (setting [4]) was greater than 0.52 mg/mL; in data set [1] (setting [5]) it was greater than 0.28 mg/mL.

Consider `CC(C)(N)C(=O)OCN1C(=O)[C@@H](NC(=O)[C@H](CCC(F)(F)F)[C@H](CCC(F)(F)F)C(N)=O)N=C(c2ccccc2)c2ccccc21` [Example 4, ((3S)-3-(((2R,3S)-3-Carbamoyl-6,6,6-trifluoro-2-(3,3,3-trifluoropropyl)hexanoyl)amino)-2-oxo-5-phenyl-2,3-dihydro-1H-1,4-benzodiazepin-1-yl)methyl 2-methylalaninate], for which the half-life is 8 h in “Solution Stability Assay” (setting [2]) and 64 h in the data set “Solution Stability Assay” (setting [3]). Further, the solubility at 24 h in data set [1] (setting [4]) was greater than 1.07 mg/mL; in data set [1] (setting [5]) it was greater than 3.23 mg/mL.

`C[C@H](N)C(=O)OCN1C(=O)[C@@H](NC(=O)[C@H](CCC(F)(F)F)[C@H](CCC(F)(F)F)C(N)=O)N=C(c2ccccc2)c2ccccc21` [Example 5, ((3S)-3-(((2R,3S)-3-Carbamoyl-6,6,6-trifluoro-2-(3,3,3-trifluoropropyl)hexanoyl)amino)-2-oxo-5-phenyl-2,3-dihydro-1H-1,4-benzodiazepin-1-yl)methyl L-alaninate]: the half-life in “Solution Stability Assay” (setting [2]) is 5 h; in the data set “Solution Stability Assay” (setting [3]), 92 h. The solubility at 24 h turned out to be 3.2 mg/mL (≈ 4970 µM) in data set [1] (setting [4]) and 2.3 mg/mL (≈ 3570 µM) in data set [1] (setting [5]).

For `CC(C)[C@H](N)C(=O)OCN1C(=O)[C@@H](NC(=O)[C@H](CCC(F)(F)F)[C@H](CCC(F)(F)F)C(N)=O)N=C(c2ccccc2)c2ccccc21` [Example 6, ((3S)-3-(((2R,3S)-3-Carbamoyl-6,6,6-trifluoro-2-(3,3,3-trifluoropropyl)hexanoyl)amino)-2-oxo-5-phenyl-2,3-dihydro-1H-1,4-benzodiazepin-1-yl)methyl L-valinate], the half-life in the data set “Solution Stability Assay” (setting [2]) is 41 h; in “Solution Stability Assay” (setting [3]), greater than 500 h. Also, the values for the solubility at 24 h in data set [1] (setting [4]) and in data set [1] (setting [5]) were 0.5 mg/mL (≈ 744 µM) and 0.3 mg/mL (≈ 447 µM), respectively.

As for `NC(=O)[C@@H](CCC(F)(F)F)[C@@H](CCC(F)(F)F)C(=O)N[C@H]1N=C(c2ccccc2)c2ccccc2N(COC(=O)C2(N)CC2)C1=O` [Example 7, ((3S)-3-(((2R,3S)-3-Carbamoyl-6,6,6-trifluoro-2-(3,3,3-trifluoropropyl)hexanoyl)amino)-2-oxo-5-phenyl-2,3-dihydro-1H-1,4-benzodiazepin-1-yl)methyl 1-aminocyclopropanecarboxylate], the half-life in the data set “Solution Stability Assay” (setting [2]) and in “Solution Stability Assay” (setting [3]) was greater than 500 h in each case. For the same compound, the solubility at 24 h in data set [1] (setting [4]) was 2.09 mg/mL (≈ 3190 µM); in data set [1] (setting [5]), 1.78 mg/mL (≈ 2720 µM).

`NCCSNC(=O)[C@@H](CCC(F)(F)F)[C@@H](CCC(F)(F)F)C(=O)N[C@H]1N=C(c2ccccc2)c2ccccc2NC1=O` [Example 8, (2S,3R)—N-((2-Aminoethyl)sulfanyl)-N′-((3S)-2-oxo-5-phenyl-2,3-dihydro-1H-1,4-benzodiazepin-3-yl)-2,3-bis(3,3,3-trifluoropropyl)succinamide]: the half-life is 334 h in the data set “Solution Stability Assay” (setting [2]) and greater than 500 h in “Solution Stability Assay” (setting [3]). Also, the solubility at 24 h in data set [1] (setting [4]) is greater than 0.47 mg/mL; in data set [1] (setting [5]), 0.52 mg/mL (≈ 842 µM).

As for `N[C@@H](CSNC(=O)[C@@H](CCC(F)(F)F)[C@@H](CCC(F)(F)F)C(=O)N[C@H]1N=C(c2ccccc2)c2ccccc2NC1=O)C(=O)O` [Example 9, S-(((2S,3R)-6,6,6-Trifluoro-3-(((3S)-2-oxo-5-phenyl-2,3-dihydro-1H-1,4-benzodiazepin-3-yl)carbamoyl)-2-(3,3,3-trifluoropropyl)hexanoyl)amino)-L-cysteine], the figures for the half-life in the data set “Solution Stability Assay” (setting [2]) and in “Solution Stability Assay” (setting [3]) were 58 h and 335 h, respectively. Moreover, the solubility at 24 h in data set [1] (setting [4]) amounted to 0.64 mg/mL (≈ 967 µM); in data set [1] (setting [5]) it was 0.75 mg/mL (≈ 1130 µM).

On to `CC(C)CNCNC(=O)[C@@H](CCC(F)(F)F)[C@@H](CCC(F)(F)F)C(=O)N[C@H]1N=C(c2ccccc2)c2ccccc2N(C)C1=O` [Example 10, (2S,3R)—N-((Isobutylamino)methyl)-N′-((3S)-1-methyl-2-oxo-5-phenyl-2,3-dihydro-1H-1,4-benzodiazepin-3-yl)-2,3-bis(3,3,3-trifluoropropyl)succinamide], for which the half-life in “Solution Stability Assay” (setting [2]) is 32 h. For the same compound, the results for the solubility at 24 h in data set [1] (setting [4]) and in data set [1] (setting [5]) were less than 0.001 mg/mL and greater than 0.27 mg/mL, respectively.

Regarding `CN1C(=O)[C@@H](NC(=O)[C@H](CCC(F)(F)F)[C@H](CCC(F)(F)F)C(=O)NSCCN)N=C(c2ccccc2)c2ccccc21` [Example 11, (2S,3R)—N-((2-Aminoethyl)sulfanyl)-N′-((3S)-1-methyl-2-oxo-5-phenyl-2,3-dihydro-1H-1,4-benzodiazepin-3-yl)-2,3-bis(3,3,3-trifluoropropyl)succinamide], the half-life in the data set “Solution Stability Assay” (setting [2]) is 29 h; in “Solution Stability Assay” (setting [3]), 215 h. The values for the solubility at 24 h in data set [1] (setting [4]) and in data set [1] (setting [5]) were greater than 3.4 mg/mL and greater than 2.67 mg/mL, respectively.

As to `CN(C)CCSNC(=O)[C@@H](CCC(F)(F)F)[C@@H](CCC(F)(F)F)C(=O)N[C@H]1N=C(c2ccccc2)c2ccccc2N(C)C1=O` [Example 13, (2S,3R)—N-((2-(Dimethylamino)ethyl)sulfanyl)-N′-((3S)-1-methyl-2-oxo-5-phenyl-2,3-dihydro-1H-1,4-benzodiazepin-3-yl)-2,3-bis(3,3,3-trifluoropropyl)succinamide], the half-life is 108 h in the data set “Solution Stability Assay” (setting [2]) and 334 h in the data set “Solution Stability Assay” (setting [3]). Moreover, the solubility at 24 h in data set [1] (setting [4]) is 0.94 mg/mL (≈ 1420 µM); in data set [1] (setting [5]), greater than 0.92 mg/mL.

(Values after patent US9273075B2, “Prodrugs of 1,4-benzodiazepinone compounds” (BRISTOL-MYERS SQUIBB COMPANY, priority 2012, dated 2016).)
